According to patent publication US8791100B2 (Novartis AG, priority 2010, dated 2014):

molecular target: human S1P1 receptors (Homo sapiens (Human), UniProt P21453); experiment: Human S1P1 Receptor Calcium FLIPR Antagonist Assay (HeLa Gα16 S1P1); type: cell-based; settings: relative antagonism vs probing agonist GNF-AC-1 at EC80, HeLa-S1P1/Gα16 cells
Source text: Human S1P1 Receptor Calcium FLIPR Antagonist Assay
The assay measures intracellular changes of Ca^2+ mediated by the synthetic probing agonist 3-{[2-(2-Trifluoromethyl-biphenyl-4-yl)-benzo[b]thiophen-5-ylmethyl]-amino}-propionic acid (GNF-AC-1) in the HeLa-S1P1/Gα16 cell clone 1: HeLa (human cervix carcinoma, ATCC CCL2) cells stably expressing N-terminally myc-tagged human S1P1 receptors (GenBank™ accession No. NM_001400; UNIPROT P21453) and promiscuous Gα16 protein (GenBank™ accession number M63904, Swissprot P30679) are cultured at 37° C., 5% CO2, and 95% relative humidity. The cells are plated in 384 well black plates (10′000 cells per well). After 24 hours the cells are loaded with Fluo-4-AM (1.6 μM in HBSS and 2.5 mM probenicid) for 1 hour at 37° C. After washing, the cells are transferred to the FLIPR. The test compounds are added at different concentrations (≦100 μM) in HBSS in the presence of 0.1% BSA and changes in fluorescence are recorded (indication of agonism). The probing agonist is added 20-30 minutes afterwards to the wells at a concentration giving 80% of the maximal activity (EC80). After each addition, time points are collected as follows: 20 time points (2 seconds) before the addition of the agonist (Fmin) and 60 time points (1 or 2 seconds) after the addition of the probing agonist. This allows the determination of the maximal fluorescence (Fmax). The ratio (Fmax−Fmin)/Fmin is plotted against the log of the concentration of the test compounds and the IC50 (relative antagonism) is calculated using the XLfit-4 software. […] A concentration-response curve of the probing agonist is determined on each plate in parallel.

human S1P1 receptors, sequence (P21453 whole entry): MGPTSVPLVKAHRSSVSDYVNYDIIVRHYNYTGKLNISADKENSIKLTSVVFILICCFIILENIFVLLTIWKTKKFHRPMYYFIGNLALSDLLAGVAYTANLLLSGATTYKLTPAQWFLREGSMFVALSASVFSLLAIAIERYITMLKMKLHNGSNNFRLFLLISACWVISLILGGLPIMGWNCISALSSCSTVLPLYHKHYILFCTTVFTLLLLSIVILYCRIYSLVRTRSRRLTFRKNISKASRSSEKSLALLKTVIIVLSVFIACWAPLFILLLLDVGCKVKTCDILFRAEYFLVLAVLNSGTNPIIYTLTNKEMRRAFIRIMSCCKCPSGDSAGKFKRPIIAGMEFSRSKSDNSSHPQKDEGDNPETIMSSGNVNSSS

Structure (SMILES)	IC50
CC[C@@H](Nc1cc(CN2CCC(C)(C(=O)O)C2)c(Cl)cn1)c1ccc(Cl)c(C)c1 (single isomer, unassigned) [Example 87]	0.7 nM
Cc1cc(C(C)Nc2cccc(CN3CC(C(=O)O)C3)c2)ccc1Cl (stereo not drawn) [Example 1, 1-{3-[1-(4-Chloro-3-methyl-phenyl)-ethylamino]-benzyl}-azetidine-3-carboxylic acid]	14.7 nM
CCC(Nc1cccc(CN2CC(C(=O)O)C2)c1)c1ccc(Cl)c(C)c1 (stereo not drawn) [Example 2, 1-{3-[1-(4-Chloro-3-methyl-phenyl)-propylamino]-benzyl}-azetidine-3-carboxylic acid]	3.5 nM
CC[C@@H](Nc1cccc(CN2CC(C(=O)O)C2)c1)c1ccc(Cl)c(C)c1 [Example 3, 1-{3-[(R)-1-(4-Chloro-3-methyl-phenyl)-propylamino]-benzyl}-azetidine-3-carboxylic acid]	0.9 nM
CCC(Nc1ccc(C)c(CN2CC(C(=O)O)C2)c1)c1ccc(Cl)c(C)c1 (stereo not drawn) [Example 4, 1-{5-[1-(4-Chloro-3-methyl-phenyl)-propylamino]-2-methyl-benzyl}-azetidine-3-carboxylic acid]	0.2 nM
CC[C@@H](Nc1cccc(C(C)N2CC(C(=O)O)C2)c1)c1ccc(Cl)c(C)c1 (stereo partly drawn) [Example 6, 1-(1-{3-[(R)-1-(4-Chloro-3-methyl-phenyl)-propylamino]-phenyl}-ethyl)-azetidine-3-carboxylic acid]	0.5 nM
CC[C@@H](Nc1cccc(CN2CC(C)(C(=O)O)C2)c1)c1ccc(Cl)c(C)c1 [Example 8, 1-{3-[(R)-1-(4-Chloro-3-methyl-phenyl)-propylamino]-benzyl}-3-methyl-azetidine-3-carboxylic acid]	1.5 nM
CCC(Nc1cc(C)cc(CN2CC(C(=O)O)C2)c1)c1ccc(Cl)c(C)c1 (stereo not drawn) [Example 9, 1-{3-[1-(4-Chloro-3-methyl-phenyl)-propylamino]-5-methyl-benzyl}-azetidine-3-carboxylic acid]	0.4 nM
CCC(Nc1ccc(C)c(C(C)N2CC(C(=O)O)C2)c1)c1ccc(Cl)c(C)c1 (stereo not drawn) [Example 10, 1-(1-{5-[1-(4-Chloro-3-methyl-phenyl)-propylamino]-2-methyl-phenyl}-ethyl)-azetidine-3-carboxylic acid]	1.6 nM
CC[C@@H](Nc1cccc(CN2CC[C@@H](C(=O)O)C2)c1)c1ccc(Cl)c(C)c1 [Example 11]	4 nM
CCC(c1cccc(N[C@H](CC)c2ccc(Cl)c(C)c2)c1)N1CC(C(=O)O)C1 (stereo partly drawn) [Example 13, 1-(1-{3-[(R)-1-(4-Chloro-3-methyl-phenyl)-propylamino]-phenyl}-propyl)-azetidine-3-carboxylic acid]	4.7 nM
CCC(Nc1cccc(CN2CC[C@@H](C(=O)O)C2)c1C)c1ccc(Cl)c(C)c1 (stereo partly drawn) [Example 14, (R)-1-{3-[1-(4-Chloro-3-methyl-phenyl)-propylamino]-2-methyl-benzyl}-pyrrolidine-3-carboxylic acid]	1.5 nM
CCC(Nc1cc(C)cc(CN2CC[C@@H](C(=O)O)C2)c1)c1ccc(Cl)c(C)c1 (stereo partly drawn) [Example 15, (R)-1-{3-[1-(4-Chloro-3-methyl-phenyl)-propylamino]-5-methyl-benzyl}-pyrrolidine-3-carboxylic acid]	2.3 nM
Cc1cc(C(Nc2cccc(CN3CC(C(=O)O)C3)c2)C(C)C)ccc1Cl (stereo not drawn) [Example 17, 1-{3-[1-(4-Chloro-3-methyl-phenyl)-2-methyl-propylamino]-benzyl}-azetidine-3-carboxylic acid]	1.6 nM
CC[C@@H](Nc1cccc(CN2CC(C(=O)O)C2)c1)c1cc(C)c(Cl)c(C)c1 [Example 18, 1-{3-[(R)-1-(4-Chloro-3,5-dimethyl-phenyl)-propylamino]-benzyl}-azetidine-3-carboxylic acid]	1.9 nM
CC[C@@H](Nc1cccc(CN2CC(C(=O)O)C2)c1)c1ccc2c(Cl)cccc2c1 [Example 20, 1-{3-[(R)-1-(5-Chloro-naphthalen-2-yl)-propylamino]-benzyl}-azetidine-3-carboxylic acid]	2 nM
CC[C@@H](Nc1ccc(C)c(CN2CC(C(=O)O)C2)c1)c1ccc(Cl)c(C)c1 [Example 22, 1-{5-[(R)-1-(4-Chloro-3-methyl-phenyl)-propylamino]-2-methyl-benzyl}-azetidine-3-carboxylic acid]	0.8 nM

Structure (SMILES)	IC50
CC[C@@H](Nc1cccc(CN2CC(C(=O)O)C2)c1F)c1ccc(Cl)c(C)c1 [Example 24, 1-{3-[(R)-1-(4-Chloro-3-methyl-phenyl)-propylamino]-2-fluoro-benzyl}-azetidine-3-carboxylic acid]	1.9 nM
CC[C@@H](Nc1cccc(CN2CC[C@@H](C(=O)O)C2)c1F)c1ccc(Cl)c(C)c1 [Example 25, (R)-1-{3-[(R)-1-(4-Chloro-3-methyl-phenyl)-propylamino]-2-fluoro-benzyl}-pyrrolidine-3-carboxylic acid]	3.3 nM
CC[C@@H](Nc1cc(CN2CC(C(=O)O)C2)ccc1F)c1ccc(Cl)c(C)c1 [Example 26, 1-{3-[(R)-1-(4-Chloro-3-methyl-phenyl)-propylamino]-4-fluoro-benzyl}-azetidine-3-carboxylic acid]	2.1 nM
CC[C@@H](Nc1cc(CN2CC[C@@H](C(=O)O)C2)ccc1F)c1ccc(Cl)c(C)c1 [Example 27, (R)-1-{3-[(R)-1-(4-Chloro-3-methyl-phenyl)-propylamino]-4-fluoro-benzyl}-pyrrolidine-3-carboxylic acid]	10.6 nM
CC[C@@H](Nc1ccc(C)c(CN2CC(C)(C(=O)O)C2)c1)c1ccc(Cl)c(C)c1 [Example 28, 1-{5-[(R)-1-(4-Chloro-3-methyl-phenyl)-propylamino]-2-methyl-benzyl}-3-methyl-azetidine-3-carboxylic acid]	0.8 nM
CCc1ccc(N[C@@H](c2ccc(Cl)c(C)c2)C(F)(F)F)cc1CN1CC(C(=O)O)C1 [Example 35, 1-{5-[(S)-1-(4-Chloro-3-methyl-phenyl)-2,22-trifluoro-ethylamino]-2-ethyl-benzyl}-azetidine-3-carboxylic acid]	1.8 nM
CCc1ccc(N[C@H](CC)c2ccc(Cl)c(C)c2)cc1CN1CC[C@@H](C(=O)O)C1 [Example 36, (R)-1-{5-[(R)-1-(4-Chloro-3-methyl-phenyl)-propylamino]-2-ethyl-benzyl}-pyrrolidine-3-carboxylic acid]	3.7 nM
CCc1ccc(N[C@H](CC)c2ccc(Cl)c(C)c2)cc1CN1CC(C(=O)O)C1 [Example 37, 1-{5-[(R)-1-(4-Chloro-3-methyl-phenyl)-propylamino]-2-ethyl-benzyl}-azetidine-3-carboxylic acid]	2.5 nM
CC[C@@H](Nc1ccc(Cl)c(CN2CC[C@@H](C(=O)O)C2)c1)c1ccc(Cl)c(C)c1 [Example 38, (R)-1-{2-Chloro-5-[(R)-1-(4-chloro-3-methyl-phenyl)-propylamino]-benzyl}-pyrrolidine-3-carboxylic acid]	0.8 nM
Cc1cc([C@H](Nc2cccc(CN3CC(C(=O)O)C3)c2C)C(F)(F)F)ccc1Cl [Example 39, 1-{3-[(S)-1-(4-Chloro-3-methyl-phenyl)-2,2,2-trifluoro-ethylamino]-2-methyl-benzyl}-azetidine-3-carboxylic acid]	0.8 nM
Cc1cc([C@H](Nc2ccc(C)c(CNCCC(=O)O)c2C)C(F)(F)F)ccc1Cl [Example 40, 3-{3-[(S)-1-(4-Chloro-3-methyl-phenyl)-2,2,2-trifluoro-ethylamino]-2,6-dimethyl-benzylamino}-propionic acid]	0.4 nM
Cc1ccc(N[C@H](C)c2cc(C)c(Cl)c(C)c2)cc1CN1CC[C@@H](C(=O)O)C1 [Example 44, (R)-1-{5-[(R)-1-(4-Chloro-3,5-dimethyl-phenyl)-ethylamino]-2-methyl-benzyl}-pyrrolidine-3-carboxylic acid]	6.7 nM
Cc1cc([C@@H](C)Nc2ccc(Cl)c(CN3CC[C@@H](C(=O)O)C3)c2)cc(C)c1Cl [Example 46, (R)-1-{2-Chloro-5-[(R)-1-(4-chloro-3,5-dimethyl-phenyl)-ethylamino]-benzyl}-pyrrolidine-3-carboxylic acid]	1.3 nM
Cc1ccc(N[C@H](C)c2cc(C)c(Cl)c(C)c2)cc1CNCCC(=O)O [Example 47, 3-{5-[(R)-1-(4-Chloro-3,5-dimethyl-phenyl)-ethylamino]-2-methyl-benzylamino}-propionic acid]	1.6 nM
CC[C@@H](Nc1ccc(C)c(CNC[C@@H](C)C(=O)O)c1)c1cc(C)c(Cl)c(C)c1 [Example 49, (R)-3-(5-[(R)-1-(4-Chloro-3,5-dimethyl-phenyl)-propylamino)-2-methyl-benzylamino]-2-methyl-propionic acid]	2.4 nM
Cc1cc([C@H](Nc2ccc(Cl)c(CNCCC(=O)O)c2)C(F)(F)F)ccc1Cl [Example 52, 3-{2-Chloro-5-[(S)-1-(4-chloro-3-methyl-phenyl)-2,2,2-trifluoro-ethylamino]-benzylamino}-propionic acid]	0.9 nM
